Source: a melting point compilation (Tetko et al.; mined from patent text by program, amines drawn as free bases though some values may be those of a salt)

| melting point [°C] | SMILES |
| --- | --- |
| > 340 | O=c1[nH]c(=O)c2c1c1oc3ccccc3oc1c1[nH]c3cc(O)ccc3c12 |
| 198 to 200 | Cc1cc(N)ncc1I |
| 144 to 145 | CS(=O)(=O)c1c(C(=O)c2cnoc2C2CC2)ccc(Br)c1F |
| 122 to 123 | COC(=O)[C@H](Cc1ccc(OCCN2CCC(O)(c3ccccc3)CC2)cc1)NC(=O)[C@@H]1CCCN1S(=O)(=O)c1ccc(C)cc1 |
| 227 to 228 | COc1cccc(CN2CCC(n3c(C)c(-c4ccccc4)[nH]c3=O)CC2)c1 |
| > 250 | O=C(O)C1=CS[C@@H]2/C(=C\c3ccc4nc5n(c4c3)CCS5)C(=O)N12 |
| 222 to 223 | COc1cc(CNc2c(NC(C)(C)C)c(=O)c2=O)cc(OC)c1 |
| 98 to 102 | CCCC(=O)Oc1cc(C(C)C)ccc1C1(OC(=O)CCC)C(=O)c2ccccc2C1=O |
| 353 to 355 | O=c1[nH][nH]c(=O)c2nc3cc(Cl)ccc3cc12 |
| 143 to 145 | CSc1ccc(C=CC(=O)C=Cc2ccc(SC)cc2)cc1 |
| 153 to 155 | CN(O)C(=O)Cc1ccc(-c2ccc(OCc3ccc4ccccc4n3)cc2)c(F)c1 |
| 108 to 112 | CC(=O)CCc1c(OC(C)=O)cc(C(C)C)c(OC(C)=O)c1C(C)C |
| 128 to 131 | CC(=O)Nc1ccc(-c2ccccc2)cc1[N+](=O)[O-] |
| 128 to 130 | CC(=C(c1ccccc1)c1ccccc1)P(C1CCCCC1)C1CCCCC1 |
| 137 to 140 | Oc1ccc(C2=COc3ccccc3O2)cc1 |
| 149 | CC1(C)OC(=O)N[C@@H]1c1ccccc1 |
| 145 | N#CC1CC(c2c(F)cccc2F)=NC1c1ccc(-c2ccc(OC(F)(F)F)cc2)cc1 (configuration not stated) |
| 177 to 179 | Nc1cnn2c1NCC2 |
| 106 to 109 | CCOC(=O)c1ccc2c(cnn2CCC#N)c1 |
| 196 to 200 | Clc1ccc2c(c1Cl)C=NCC2 |
| 134 to 136 | CCC(=O)Oc1ccc2c(c1)CCC1C2CCC2(C)C(=O)CCC12 (configuration not stated) |
| 116 to 118 | COC(=O)c1cc(C(=O)OC)c2c(Cl)cc(Cl)cc2n1 |
| 68 to 70 | CNC1=NN(c2ccc(Cl)c(Cl)c2)CC1 |

| melting point [°C] | SMILES |
| --- | --- |
| 167 to 169 | Cn1c(=O)n(OCc2ccccc2)c(=O)c2cc(F)c(F)cc21 |
| 67 to 70 | O=C(O)c1cccc(CS(=O)(=O)CCO)c1 |
| 188 to 191 | Cc1ccccc1-c1cc(=O)c(C)c(-c2ccccc2)n1-c1ccccc1 |
| 246 to 247 | NC(=NO)C1CCN(c2ccc3c(NC(=O)CC4CCCCC4)c(Cl)ccc3n2)CC1 |
| 280 to 282 | Cc1c(C(=O)O)sc2c(Br)csc12 |
| 127 to 129 | CC(=O)C(C)Oc1nn(C(C)C(C)=O)c(-c2ccc(S(C)(=O)=O)cc2)c1-c1ccc(F)cc1 (configuration not stated) |
| 95 | CC1(C)CCSc2c(CC#Cc3ccc(O)cc3)cccc21 |
| 100 to 102 | FC(F)(F)Oc1ccc(/C=C/c2ccc(CBr)cc2)cc1 |
| 75 | ClCCCOc1ccccc1Cc1cccc2[nH]ccc12 |
| 159 to 160 | OCc1ccc(OCc2ccc(-c3ccccc3)cn2)cc1 |
| 132 to 133 | CC(=O)Oc1ccc(C(=O)OC2C=C(C)C(=O)CC(C)(C)C2O)cc1 (configuration not stated) |
| 234 to 237 | CC(C)Oc1c(C(N)=O)n(C)c2ccc(O)cc12 |
| 37 to 38 | Brc1ccc(OCc2ccccc2)cc1OCc1ccccc1 |
| 164 to 165 | CC(C)c1cc(C(C)C)c2nc[nH]c(=O)c2c1 |
| 220 to 222 | CC(C)(C)C(=O)OCN1C(=O)NC2(C1=O)C(=O)N(Cc1ccc(Br)cc1F)c1ccccc12 (configuration not stated) |
| 149 to 151 | O=C(O)c1ccccc1C(=O)OCC1CN(C(=O)Oc2ccccc2)CCC1c1ccc(F)cc1 (configuration not stated) |
| 104 to 107 | CC(=O)OC(OC(C)=O)c1ccc(C#N)cc1 |
| 178 to 180 | O=C(Nc1ccccc1)OCc1cn(-c2cc3cc(C(=O)O)c(=O)[nH]c3cc2C(F)(F)F)cn1 |
| 110 | CC(C)(C)OC(=O)[C@@H]1CSC(Cc2ccccc2)N1C(=O)CNC(=O)Nc1cccc(CC(=O)O)c1 (some centres not stated) |
| 208 to 210 | COc1nc2ccc(Br)cc2c2c1C(=O)c1ccccc1-2 |
| 93 to 100 | COCCN1CCc2ccc(OC)c(Nc3ncc(Cl)c(N[C@@H]4CCCC[C@H]4NS(C)(=O)=O)n3)c2CC1 |
| 130 to 132 | O=C1CSc2nc(C34CC5CC(CC(C5)C3)C4)cn21 |
| 74.7 | CCCCCC[C@@H](F)COc1cnc(-c2ccc(CCCCC)c(F)c2F)nc1 |

| melting point [°C] | SMILES |
| --- | --- |
| 197 to 198 | COc1cc(OC)c2c(=O)cc(-c3cc[nH]n3)oc2c1 |
| 130 to 132 | CCC1(CCCN2CCc3sccc3C2)C(=O)Nc2ccccc21 (configuration not stated) |
| 144 to 148 | CCC12CCC3c4ccc(OC)cc4CCC3C1CCC2(OC(C)=O)C(C)=O (configuration not stated) |
| 122 to 123 | C(=C\c1nc(COc2ccc(CCCn3ccnc3)cc2)co1)/c1ccco1 |
| 98 to 101 | CC(C)(C)OC(=O)NC1CCc2ccc(C=O)cc2C1 (configuration not stated) |
| 141 to 143 | CCOc1cc2ncnc(Cl)c2cc1OCC |
| 107 | CCCCCCCCCCCCCCCC1CCCC(c2ccc(N)cc2)(c2ccc(N)cc2)C1 (configuration not stated) |
| 176 to 177 | O=c1nc(-c2ccccn2)sc2cc(C(F)(F)F)ccc12 |
| 185 to 187 | Nc1nnc(-c2ccccc2Nc2cccc(C(F)(F)F)c2)o1 |
| 128 to 130 | CCOc1cccc(N(C(=O)CCC(=O)O)c2cc(C(C)(C)C)c(O)c(C(C)(C)C)c2)c1 |
| 120 to 122 | CS(=O)(=O)c1ccc(-c2c(F)c3cccccc-3c2-c2ccccc2)cc1 |
| 209 to 212 | O=C1CCC(c2ccc(Cl)cc2)c2ccccc2N1 (configuration not stated) |
| 223 to 227 | O=C(O)c1ccc(CNS(=O)(=O)c2ccccc2)cc1 |
| 125 to 131 | COC(=O)c1cccc(F)c1C=NC(C)(C(N)=O)C(C)C (configuration not stated) |
| 165 to 167 | COc1cc(CC(C#N)=CNc2ccccc2)cc(OC)c1NC(C)=O |
| 201 to 204 | COc1ccc(C(=O)N2CCNC2=Nc2c(Cl)cccc2Cl)cc1OC |
| 161 to 163 | CC(C)[C@H](N)C(=O)OCc1nc2c(N)nc3ccccc3c2n1CCCCNS(C)(=O)=O |
| 165 to 167 | COC1=C(OC)C(=O)c2c(cccc2S(=O)c2ccccc2)C1=O (configuration not stated) |
| 165 to 166 | Cc1nn(C)c(O)c1C(=O)c1ccc(Cl)cc1Cl |
| 93 to 95 | CC(C)(O)CCCCCc1cccc(C=Cc2ccc(CO)c(CO)c2)c1 |
| 290 to 292 | O=c1[nH]c(=S)[nH]cc1Cc1cnc2ccccc2c1 |
| 87 to 89 | O=C(O)c1ccc(OCCCCCCc2cccc(OCc3ccccc3)c2OCc2ccccc2)c(Cl)c1 |
| 235 | COc1cccc(C2(CC(=O)O)C(=O)Nc3ccc(Cl)cc32)c1OC (configuration not stated) |

| melting point [°C] | SMILES |
| --- | --- |
| 82 | CC(=O)N(C)CCc1coc2ccc3c(c12)CCCO3 |
| 156 to 158 | Cc1cccc(C2CC(=O)c3ccccc3O2)c1 (configuration not stated) |
| 87 to 90 | CC(C)(C)c1ccc(C(O)CCCN2CCC(C(O)c3nc4ccccc4n3Cc3ccc(F)cc3)CC2)cc1 (configuration not stated) |
| 264 to 266 | c1ccc(-c2nnc3cc(-c4ccsc4)c(OCc4ncn[nH]4)nn23)cc1 |
| 236 | O=C(c1cc(Cl)cc(Cl)c1)N1CCc2cc(S(=O)(=O)N3CC(c4ccccc4)NC3=O)ccc21 (configuration not stated) |
| 183 to 187 | O=C1c2ccc(Cl)cc2C(=O)N1c1ccc([N+](=O)[O-])cc1CI |
| 55 to 56 | CCCCCCCCCCCCCCCC/C=C\OC[C@H](O)CO |
| 112 to 114 | CC(C)(C)c1nc2cc(N3CCCCC3)c(N=C=S)cc2s1 |
| 130 | COc1cc(C=O)ccc1OCCN1c2ccccc2Sc2ccccc21 |
| 207 to 208 | CC(C)c1cc2ncccc2cc1Oc1cnc(N)nc1N |
| 119 to 121 | COC(=O)c1cccc2nc(N3CCCCC3)n(Cc3ccc(-c4ccccc4C#N)cc3)c12 |
| 75 to 76 | c1ccc2c(c1)C(=NOCCN1CCCCC1)c1ccccc1C1CC21 (configuration not stated) |
| 194 | CN(CCCN1C(=O)c2cccc3cc4ccccc4c(c23)C1=O)CCCN1C(=O)c2cccc3cc4ccccc4c(c23)C1=O |
| 227 to 229 | Cc1c(Nc2c(C#N)cnc3sc(-c4cccc(CN(C)C)c4)cc23)ccc2[nH]ccc12 |
| 138 to 142 | CON=C(C(=O)O)c1nsc(NC(=O)OCc2ccccc2)n1 |
| 50 to 56 | CCC(CC)c1nnc(SC)n(N)c1=O |
| > 200 | CN(C)CCCOc1ccc(C[C@H](NC(=O)[C@@H]2CCCN2S(=O)(=O)c2ccc(Cl)s2)C(=O)O)cc1 |
| 183 to 184 | CCC(=O)Cn1c(C)cn(N=Cc2cccnc2)c1=O |
| 136 to 138 | N#Cc1cc(Sc2ccc(Cl)c(Cl)c2)ccc1[N+](=O)[O-] |
| 121 to 122 | OCC(O)c1cccc(OCc2ccc3ccccc3c2)c1 (configuration not stated) |
| 183 to 185 | Cc1nc(-c2ccc3c(c2)CCCC3)c(C(=O)O)o1 |
| 152 to 154 | ClCc1cccc(-c2nnn[nH]2)c1 |
| 110 | Cc1cccc(C(=O)c2cccc(N)c2)c1 |

| SMILES | melting point [°C] |
| --- | --- |
| N#CC1CN1C(=O)NC(=O)c1cccc([N+](=O)[O-])c1 (configuration not stated) | 156 to 158 |
| CN1CC(C(=O)COC(=O)c2cncc(Br)c2)CC2c3cccc4[nH]cc(c34)CC21 (configuration not stated) | 185 to 187 |
| COC1CC(N2CCCC2)C(N(C)C(=O)COc2cccc(F)c2)CC1OC (configuration not stated) | 119 to 121 |
| CCn1ncc2c3c(cnc21)C(N)(OC)N=C1N=CNN13 (configuration not stated) | 215 to 216 |
| CCOC(=O)C(=O)C1C(=O)c2cccc3c2C1CCC3 (configuration not stated) | 92 to 94 |
| COc1cc(C2C3=C(COC3=S)N(Cc3ccccc3)c3cc4c(cc32)OCO4)cc(OC)c1OC (configuration not stated) | 130 |
| CCOC(=O)C1CCC2(C)C(=CC(=O)C3C4CCC(=O)C4(C)CCC32)C1 (configuration not stated) | 187 to 188 |
| Cn1cc2c(c1)-c1ccc(Cl)cc1C(c1ccccc1F)=NC2 | 142 to 144 |
| Fc1cc(F)c2[nH]c(-c3ccccc3)c(CCN3CCCCC3)c2c1 | 185 to 187 |
| O=C(Cc1ccccc1)N=C1SCCN1Cc1ccc(Cl)nc1 | 157 to 158 |
